The source made the active and inactive calls. A value given as a limit tells only on which side of the number the result lay.

Experiment [1] has as its target ADP-ribosylation factor GTPase-activating protein 1 (Rattus norvegicus, UniProt Q62848). Briefly: Fluorescence polarization-based biochemical high throughput dose response screening assay to identify inhibitors of ADP-ribosylation factor GTPase activating protein 1 (ARFGAP1). The class given is functional.
Experiment [2] has as its target DNA (cytosine-5)-methyltransferase 1 (Homo sapiens, UniProt P26358). Briefly: inhibition of DNA methylation by DNMT1 – biochemical, fluorescent molecular beacon, confirmation (AID 602386). It is filed as functional.
For experiment [3], the target named is T1, Carboxy-terminal domain RNA polymerase II polypeptide A small phosphatase 1 (Homo sapiens, UniProt Q9GZU7).
T1 sequence (Q9GZU7 whole entry): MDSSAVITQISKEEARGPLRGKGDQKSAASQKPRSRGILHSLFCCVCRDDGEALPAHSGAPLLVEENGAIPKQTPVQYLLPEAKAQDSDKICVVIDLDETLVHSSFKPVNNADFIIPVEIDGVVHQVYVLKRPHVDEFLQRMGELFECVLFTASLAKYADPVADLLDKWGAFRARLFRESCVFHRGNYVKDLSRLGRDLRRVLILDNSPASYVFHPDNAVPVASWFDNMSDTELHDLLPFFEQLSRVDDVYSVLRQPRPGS
Briefly: CTDSP1 inhibitors, concentration-response, biochemical, absorbance readout, ultra-high-throughput screen actives (AID 540297). The class given is functional.

In experiment [4] the target is T2, Rac GTPase-activating protein 1 (Homo sapiens, UniProt Q9H0H5).
T2 sequence (Q9H0H5 whole entry): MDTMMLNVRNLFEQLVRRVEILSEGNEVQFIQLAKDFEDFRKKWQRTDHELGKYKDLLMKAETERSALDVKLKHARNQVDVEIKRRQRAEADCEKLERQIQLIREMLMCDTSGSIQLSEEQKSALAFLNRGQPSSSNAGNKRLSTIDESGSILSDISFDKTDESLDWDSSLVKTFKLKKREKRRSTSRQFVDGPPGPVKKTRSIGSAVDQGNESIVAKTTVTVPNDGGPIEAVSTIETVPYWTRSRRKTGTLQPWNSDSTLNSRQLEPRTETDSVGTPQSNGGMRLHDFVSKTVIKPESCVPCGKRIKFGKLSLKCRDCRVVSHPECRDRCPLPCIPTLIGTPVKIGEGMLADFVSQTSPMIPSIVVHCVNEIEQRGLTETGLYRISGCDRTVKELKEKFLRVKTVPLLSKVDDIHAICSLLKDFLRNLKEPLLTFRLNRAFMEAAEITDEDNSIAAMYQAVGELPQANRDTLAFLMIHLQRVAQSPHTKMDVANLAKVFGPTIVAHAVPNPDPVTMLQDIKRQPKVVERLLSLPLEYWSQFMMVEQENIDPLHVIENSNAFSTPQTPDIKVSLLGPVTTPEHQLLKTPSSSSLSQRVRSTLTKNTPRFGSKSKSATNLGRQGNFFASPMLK
Briefly: blockers of MgcRacGAP-driven Rac1 GTP hydrolysis – biochemical, ADP Hunter fluorescence, primary and confirmatory, confirmation (AID 624330). The class given is functional.

Experiment [5] in a line: NIH3T3 cell viability loss – ATP luminescence, mouse fibroblasts, counter-screen, dose response (AID 2010).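 Further: cells exposed to compound for about 90 hours before reading.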 It is filed as functional, cell-based.
Experiment [6] is described as follows: Trypanosoma cruzi growth suppression in host cells – NIH3T3 host cells, beta-gal luminescence, confirmation (AID 2044).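 Further: intracellular parasites grown in NIH/3T3 mouse fibroblasts as host cells; luminescent beta-galactosidase reporter signal from transgenic T. cruzi replicating inside host cells; inhibitors lower the luminescence signal.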 The class given is functional, cell-based.
The target in another experiment is Protein Wnt-3a (Mus musculus, UniProt P27467). Briefly: antagonism of Wnt3a pathway luciferase reporter – Wnt-LIGHT cells, luminescence, selectivity assay for Gli-SUFU antagonist project, dose response (AID 651570).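 Further: Wnt-LIGHT reporter cells stimulated with conditioned medium from Wnt3a-producing cells.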 The class given is functional. To be noted: read-out: IC50_Mean.
Sequence of Protein Wnt-3a (P27467 whole entry): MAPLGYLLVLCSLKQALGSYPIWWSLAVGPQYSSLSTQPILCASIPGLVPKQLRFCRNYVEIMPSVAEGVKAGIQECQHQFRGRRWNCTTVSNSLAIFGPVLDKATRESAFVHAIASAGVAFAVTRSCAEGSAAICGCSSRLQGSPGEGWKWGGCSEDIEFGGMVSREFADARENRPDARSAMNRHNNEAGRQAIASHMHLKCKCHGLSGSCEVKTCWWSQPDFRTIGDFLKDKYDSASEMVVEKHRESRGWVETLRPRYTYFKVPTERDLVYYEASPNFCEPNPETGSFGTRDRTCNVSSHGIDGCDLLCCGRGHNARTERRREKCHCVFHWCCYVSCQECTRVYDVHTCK
A further experiment relates to INS1. Briefly: INS-1E survival protection against cytokine death – cell-based, luminescence, retest, dose response (AID 449756).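 Further: cell death triggered by IL-1 beta plus TNF-alpha plus IFN-gamma mixture; protective hits raise ATP signal compared with cytokine alone wells.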 The class given is functional. To be noted: Rattus norvegicus.
Experiment [7] addresses Nuclear receptor subfamily 5 group A member 2 (Homo sapiens, UniProt O00482). The class given is functional, cell-based.
A further experiment deals with Steroidogenic factor 1 (Homo sapiens, UniProt Q13285). The experiment is described as follows: Counterscreen for inverse agonists of the liver receptor homolog-1 (LRH-1; NR5A2): Luminescence-based cell-based high throughput dose response assay to identify inverse agonists of the Steroidogenic Factor 1 Nuclear Receptor (SF1; NR5A1). The class given is functional.
Sequence of Steroidogenic factor 1 (Q13285 whole entry): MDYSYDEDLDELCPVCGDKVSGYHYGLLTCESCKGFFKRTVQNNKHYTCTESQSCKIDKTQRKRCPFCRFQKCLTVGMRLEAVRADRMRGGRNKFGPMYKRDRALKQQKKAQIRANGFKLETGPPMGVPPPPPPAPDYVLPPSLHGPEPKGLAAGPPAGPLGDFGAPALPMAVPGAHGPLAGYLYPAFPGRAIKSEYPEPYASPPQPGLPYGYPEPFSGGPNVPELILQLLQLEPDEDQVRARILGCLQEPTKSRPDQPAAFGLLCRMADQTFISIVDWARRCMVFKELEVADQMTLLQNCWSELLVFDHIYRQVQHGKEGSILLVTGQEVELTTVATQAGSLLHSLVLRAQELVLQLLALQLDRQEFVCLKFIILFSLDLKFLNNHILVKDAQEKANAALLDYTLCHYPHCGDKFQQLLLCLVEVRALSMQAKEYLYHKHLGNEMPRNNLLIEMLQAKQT
Experiment [8] is described as follows: nonselective StAR promoter luciferase inhibitors – cell-based, luminescence, luciferase reporter, counter-screen for LRH-1 inverse agonist project, dose response (AID 651969). It is filed as functional.
Experiment [9] has as its target DNA repair and recombination protein RAD54-like (Homo sapiens, UniProt Q92698). Briefly: RAD54 Holliday junction migration blockers – biochemical, fluorescence, cherry-picked samples, dose series, confirmation (AID 651657). It is filed as functional.
Experiment [10] concerns the target T3, DNA repair protein RAD52 homolog (Homo sapiens, UniProt P43351).
T3 sequence (P43351 whole entry): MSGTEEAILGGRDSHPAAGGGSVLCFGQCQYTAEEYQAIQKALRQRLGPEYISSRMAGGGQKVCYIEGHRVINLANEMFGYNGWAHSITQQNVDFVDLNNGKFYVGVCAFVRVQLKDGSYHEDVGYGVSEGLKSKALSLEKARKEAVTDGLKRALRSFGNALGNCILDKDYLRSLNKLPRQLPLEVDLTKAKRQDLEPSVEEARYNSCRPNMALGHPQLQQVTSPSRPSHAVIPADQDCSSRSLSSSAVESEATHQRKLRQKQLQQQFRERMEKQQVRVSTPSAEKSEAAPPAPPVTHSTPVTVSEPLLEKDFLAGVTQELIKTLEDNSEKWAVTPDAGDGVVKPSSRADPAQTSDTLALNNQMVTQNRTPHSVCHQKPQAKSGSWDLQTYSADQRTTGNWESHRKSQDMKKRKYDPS
The class given is functional, biochemical.

The target in experiment [11] is T4, Insulin-degrading enzyme (Homo sapiens, UniProt P14735).
T4 sequence (P14735 whole entry): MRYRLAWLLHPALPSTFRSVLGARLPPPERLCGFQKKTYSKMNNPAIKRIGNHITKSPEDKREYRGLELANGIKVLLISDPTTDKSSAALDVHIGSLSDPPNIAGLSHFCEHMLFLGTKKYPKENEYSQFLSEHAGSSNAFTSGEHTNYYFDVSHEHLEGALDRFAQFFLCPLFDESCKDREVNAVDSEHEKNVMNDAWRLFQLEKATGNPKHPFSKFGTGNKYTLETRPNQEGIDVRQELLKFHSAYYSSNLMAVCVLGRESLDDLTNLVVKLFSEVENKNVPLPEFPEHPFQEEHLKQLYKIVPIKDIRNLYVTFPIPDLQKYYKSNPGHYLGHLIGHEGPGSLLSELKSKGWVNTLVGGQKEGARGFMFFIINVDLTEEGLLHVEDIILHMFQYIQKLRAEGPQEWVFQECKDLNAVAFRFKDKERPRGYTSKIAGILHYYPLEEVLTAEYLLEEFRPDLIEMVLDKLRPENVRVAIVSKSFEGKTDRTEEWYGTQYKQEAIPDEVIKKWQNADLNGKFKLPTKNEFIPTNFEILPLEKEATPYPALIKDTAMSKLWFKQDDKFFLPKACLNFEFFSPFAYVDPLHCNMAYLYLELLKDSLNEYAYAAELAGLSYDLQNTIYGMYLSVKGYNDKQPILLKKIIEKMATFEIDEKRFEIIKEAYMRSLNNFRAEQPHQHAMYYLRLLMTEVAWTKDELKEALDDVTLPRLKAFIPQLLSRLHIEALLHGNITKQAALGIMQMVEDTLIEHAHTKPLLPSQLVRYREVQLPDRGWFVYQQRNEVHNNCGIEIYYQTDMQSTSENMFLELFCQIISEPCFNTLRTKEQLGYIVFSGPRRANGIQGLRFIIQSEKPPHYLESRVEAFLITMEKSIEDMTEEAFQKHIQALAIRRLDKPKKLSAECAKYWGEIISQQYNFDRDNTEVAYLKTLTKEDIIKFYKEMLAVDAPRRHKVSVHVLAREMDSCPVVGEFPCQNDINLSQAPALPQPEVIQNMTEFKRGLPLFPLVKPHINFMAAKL
Briefly: recombinant IDE activation, cell-free – biochemical, fluorescence polarization, counter-screen for IDE activator project, dose response (AID 588681).

In experiment [12] the test system is HEK293. Briefly: membrane integrity loss in HEK cells – cell-based, fluorescence, cytotoxicity control for IDE activator project, dose response (AID 588440).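 Further: cytotoxicity by LDH release measuring loss of membrane integrity.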 The class given is functional. The note with it: Homo sapiens.
Experiment [13] deals with T4, Insulin-degrading enzyme. The experiment is described as follows: cellular IDE activation of Abeta substrate cleavage – fluorescence polarization, HEK cells, dose response (AID 588439). It is filed as functional, cell-based.
Experiment [14] deals with HEK293. Briefly: optical interference in Abeta FP readout, dose response, artefact control for IDE activator project, biochemical, fluorescence polarization (AID 588442). The class given is functional, cell-based. To be noted: Homo sapiens.
Experiment [15] can be described thus: microbe, parasite or virus in culture. The class given is functional. To be noted: Mycobacterium tuberculosis.
Experiment [16] can be described thus: MIN6 cell viability loss – mouse insulinoma, cytotoxicity control, dose response (AID 2122).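 Further: confirmatory high-throughput counterscreen run to flag cytotoxic compounds.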 The class given is functional.
Experiment [17] is described as follows: decrease of insulin promoter-GFP reporter – imaging, high-content screening, mouse beta cells (AID 1628). The class given is functional. The note with it: MIN6.
Experiment [18] in a line: viability of HCT116 lacking mutant beta-catenin – cell-based, human colon tumor, dose response (AID 1045).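 Further: HCT116 colon tumor cells with beta catenin knocked out; cells exposed to compound for 60 hours.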 The class given is functional.
The target of experiment [19] is T5, Ubiquitin-conjugating enzyme E2 N (Homo sapiens, UniProt P61088).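 Further: Dose-response confirmation in a TR-FRET assay detecting UBC13-driven polyubiquitin chain formation, inhibition measured.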
T5 sequence (P61088 whole entry): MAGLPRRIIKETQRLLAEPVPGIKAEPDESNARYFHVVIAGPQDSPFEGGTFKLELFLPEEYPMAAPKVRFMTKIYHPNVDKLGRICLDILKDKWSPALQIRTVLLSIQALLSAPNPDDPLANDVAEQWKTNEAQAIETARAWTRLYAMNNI
The class given is functional.

A short description of experiment [20]: viability of PTEN-deleted HCT116 cells – cell-based, HCT116 PTEN knockout, dose response (AID 1047).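 Further: HCT116 colon tumor cells with PTEN knocked out; cells exposed to compound for 60 hours before readout; potency for loss of cell viability measured by luminescence.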 The class given is functional.
For experiment [21], the target named is Tyrosine-protein phosphatase non-receptor type 11 (Homo sapiens, UniProt Q06124). Briefly: PTPN11 enzyme inhibitors – biochemical, selectivity assay for STEP inhibitor project, dose response (AID 602367). The class given is functional. The note with it: read-out: IC50_Mean.
Sequence of Tyrosine-protein phosphatase non-receptor type 11 (Q06124 whole entry): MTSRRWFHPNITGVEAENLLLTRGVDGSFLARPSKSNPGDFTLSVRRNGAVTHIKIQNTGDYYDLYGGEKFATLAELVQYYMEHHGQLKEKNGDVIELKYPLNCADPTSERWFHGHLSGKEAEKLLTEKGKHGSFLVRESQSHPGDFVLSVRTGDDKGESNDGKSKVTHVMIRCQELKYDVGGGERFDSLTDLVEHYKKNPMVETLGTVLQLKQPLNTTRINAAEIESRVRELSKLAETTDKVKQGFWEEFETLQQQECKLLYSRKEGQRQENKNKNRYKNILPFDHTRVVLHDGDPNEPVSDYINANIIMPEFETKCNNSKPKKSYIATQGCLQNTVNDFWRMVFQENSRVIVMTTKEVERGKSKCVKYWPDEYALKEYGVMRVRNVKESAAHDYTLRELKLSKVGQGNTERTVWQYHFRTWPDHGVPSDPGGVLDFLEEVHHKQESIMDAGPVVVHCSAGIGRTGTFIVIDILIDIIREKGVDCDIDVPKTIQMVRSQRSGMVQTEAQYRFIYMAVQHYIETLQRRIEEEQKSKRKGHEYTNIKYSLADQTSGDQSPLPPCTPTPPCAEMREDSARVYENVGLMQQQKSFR
For experiment [22], the target named is Tyrosine-protein phosphatase non-receptor type 5 (Homo sapiens, UniProt P54829). Briefly: PTPN5 enzyme inhibition – biochemical, fluorescence intensity, uHTS hits, confirmation (AID 602372). It is filed as functional. To be noted: read-out: IC50_Mean.
Experiment [23] concerns the target Dual specificity protein phosphatase 3 (Homo sapiens, UniProt P51452). Briefly: VHR phosphatase inhibition, dose response, selectivity assay for STEP inhibitor project, biochemical (AID 602374). It is filed as functional. To be noted: read-out: IC50_Mean.

Sequence of DNA (cytosine-5)-methyltransferase 1 (P26358 whole entry, the tested form may be a part): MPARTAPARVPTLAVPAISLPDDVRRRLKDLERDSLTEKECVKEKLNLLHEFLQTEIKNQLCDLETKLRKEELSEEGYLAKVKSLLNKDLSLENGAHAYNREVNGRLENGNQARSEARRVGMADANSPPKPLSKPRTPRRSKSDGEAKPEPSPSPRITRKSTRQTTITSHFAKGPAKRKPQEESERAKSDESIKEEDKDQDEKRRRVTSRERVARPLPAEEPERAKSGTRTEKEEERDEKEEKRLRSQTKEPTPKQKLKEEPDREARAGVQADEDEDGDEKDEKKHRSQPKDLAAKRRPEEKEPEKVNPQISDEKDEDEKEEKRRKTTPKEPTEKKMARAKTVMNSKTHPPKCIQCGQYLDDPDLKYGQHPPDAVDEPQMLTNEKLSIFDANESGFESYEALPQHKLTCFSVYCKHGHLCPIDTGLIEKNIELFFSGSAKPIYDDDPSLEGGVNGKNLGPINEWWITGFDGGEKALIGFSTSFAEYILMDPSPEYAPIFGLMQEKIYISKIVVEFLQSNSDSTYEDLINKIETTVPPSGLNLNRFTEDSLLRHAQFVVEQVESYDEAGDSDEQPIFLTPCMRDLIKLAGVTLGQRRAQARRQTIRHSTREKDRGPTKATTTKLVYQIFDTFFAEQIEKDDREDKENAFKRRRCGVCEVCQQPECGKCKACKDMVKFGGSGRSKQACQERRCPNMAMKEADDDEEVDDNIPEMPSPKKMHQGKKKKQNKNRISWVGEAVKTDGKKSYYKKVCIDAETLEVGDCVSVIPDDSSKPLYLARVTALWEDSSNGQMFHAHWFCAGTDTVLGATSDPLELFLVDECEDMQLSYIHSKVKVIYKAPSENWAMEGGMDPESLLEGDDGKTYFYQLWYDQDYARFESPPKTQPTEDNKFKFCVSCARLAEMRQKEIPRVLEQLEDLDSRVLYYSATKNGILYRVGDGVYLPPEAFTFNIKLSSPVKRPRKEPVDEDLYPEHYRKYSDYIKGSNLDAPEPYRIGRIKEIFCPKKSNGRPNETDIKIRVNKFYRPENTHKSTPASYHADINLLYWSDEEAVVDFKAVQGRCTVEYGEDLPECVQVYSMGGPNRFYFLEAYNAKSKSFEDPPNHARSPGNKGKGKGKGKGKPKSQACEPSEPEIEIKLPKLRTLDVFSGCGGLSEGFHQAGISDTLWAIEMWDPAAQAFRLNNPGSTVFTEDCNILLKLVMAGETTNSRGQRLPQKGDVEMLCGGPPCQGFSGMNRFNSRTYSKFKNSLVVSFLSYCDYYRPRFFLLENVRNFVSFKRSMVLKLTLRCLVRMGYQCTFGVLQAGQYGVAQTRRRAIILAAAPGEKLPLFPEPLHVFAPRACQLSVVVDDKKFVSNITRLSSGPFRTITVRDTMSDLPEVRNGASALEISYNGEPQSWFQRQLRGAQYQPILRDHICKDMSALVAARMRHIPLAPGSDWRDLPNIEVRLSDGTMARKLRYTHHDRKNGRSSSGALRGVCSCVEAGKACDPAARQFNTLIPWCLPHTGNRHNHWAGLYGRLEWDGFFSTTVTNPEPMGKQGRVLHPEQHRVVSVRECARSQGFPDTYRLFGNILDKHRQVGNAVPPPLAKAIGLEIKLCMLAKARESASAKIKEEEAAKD
Sequence of DNA repair and recombination protein RAD54-like (Q92698 whole entry): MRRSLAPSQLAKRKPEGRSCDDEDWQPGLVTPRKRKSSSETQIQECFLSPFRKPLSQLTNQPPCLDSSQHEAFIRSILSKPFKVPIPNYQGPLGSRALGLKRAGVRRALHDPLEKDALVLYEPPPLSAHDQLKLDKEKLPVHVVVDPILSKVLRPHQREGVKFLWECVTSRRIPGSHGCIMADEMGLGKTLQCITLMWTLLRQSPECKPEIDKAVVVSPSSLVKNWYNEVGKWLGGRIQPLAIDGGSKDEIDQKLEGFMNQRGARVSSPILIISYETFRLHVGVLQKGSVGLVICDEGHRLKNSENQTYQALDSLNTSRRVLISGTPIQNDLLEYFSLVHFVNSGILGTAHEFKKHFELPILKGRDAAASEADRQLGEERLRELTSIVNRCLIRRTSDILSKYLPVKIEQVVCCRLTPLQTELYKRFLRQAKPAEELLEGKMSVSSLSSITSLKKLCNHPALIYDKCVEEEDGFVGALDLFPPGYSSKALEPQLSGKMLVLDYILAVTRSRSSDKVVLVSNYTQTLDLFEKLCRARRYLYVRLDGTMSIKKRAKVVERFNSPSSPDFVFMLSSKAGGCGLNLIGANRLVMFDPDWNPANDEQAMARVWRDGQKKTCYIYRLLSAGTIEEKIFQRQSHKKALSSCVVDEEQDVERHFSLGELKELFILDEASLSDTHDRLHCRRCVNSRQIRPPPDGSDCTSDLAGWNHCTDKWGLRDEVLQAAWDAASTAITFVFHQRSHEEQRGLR
Sequence of Nuclear receptor subfamily 5 group A member 2 (O00482 whole entry): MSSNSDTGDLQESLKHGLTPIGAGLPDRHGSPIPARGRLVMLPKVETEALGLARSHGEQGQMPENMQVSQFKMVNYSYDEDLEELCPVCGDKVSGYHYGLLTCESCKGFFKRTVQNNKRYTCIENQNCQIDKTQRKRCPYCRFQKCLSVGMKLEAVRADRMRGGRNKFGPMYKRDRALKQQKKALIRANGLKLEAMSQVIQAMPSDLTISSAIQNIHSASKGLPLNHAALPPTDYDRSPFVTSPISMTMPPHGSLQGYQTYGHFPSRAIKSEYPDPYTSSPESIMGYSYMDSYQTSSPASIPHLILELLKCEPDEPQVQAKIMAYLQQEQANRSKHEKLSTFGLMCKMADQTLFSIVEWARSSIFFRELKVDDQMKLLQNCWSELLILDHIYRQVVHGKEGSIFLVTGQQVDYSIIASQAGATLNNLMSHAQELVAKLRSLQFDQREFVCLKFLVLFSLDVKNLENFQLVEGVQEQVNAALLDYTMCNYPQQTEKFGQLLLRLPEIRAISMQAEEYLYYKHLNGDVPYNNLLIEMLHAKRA
Sequence of ADP-ribosylation factor GTPase-activating protein 1 (Q62848 whole entry): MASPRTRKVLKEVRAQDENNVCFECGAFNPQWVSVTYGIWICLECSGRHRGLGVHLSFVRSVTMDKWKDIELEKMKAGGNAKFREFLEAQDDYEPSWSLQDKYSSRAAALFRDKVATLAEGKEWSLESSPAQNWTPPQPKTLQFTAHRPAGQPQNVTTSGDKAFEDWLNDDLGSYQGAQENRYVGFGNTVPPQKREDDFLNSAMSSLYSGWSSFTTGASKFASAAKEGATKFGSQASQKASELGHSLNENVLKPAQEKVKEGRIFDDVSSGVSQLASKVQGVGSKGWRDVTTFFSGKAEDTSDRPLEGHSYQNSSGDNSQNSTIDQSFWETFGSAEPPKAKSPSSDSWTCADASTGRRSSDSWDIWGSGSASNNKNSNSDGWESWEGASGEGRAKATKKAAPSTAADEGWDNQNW
Sequence of Dual specificity protein phosphatase 3 (P51452 whole entry): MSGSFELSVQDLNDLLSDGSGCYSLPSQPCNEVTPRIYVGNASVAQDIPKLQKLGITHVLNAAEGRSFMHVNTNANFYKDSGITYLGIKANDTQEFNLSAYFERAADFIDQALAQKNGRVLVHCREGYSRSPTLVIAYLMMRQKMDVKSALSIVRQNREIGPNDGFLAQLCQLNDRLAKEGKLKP

Take `Cc1cc(NS(=O)(=O)c2ccc(NC(=S)NC(=O)c3cccc(S(=O)(=O)N(C)C)c3)cc2)no1`: the IC50 in [1] is 46.6 µM (inactive).
Take `C/C=C/C=C/C(=O)C1=C(O)[C@]2(C)C(=O)C(C)(O)[C@H]1[C@H]([C@]1(C)OC(O)=C(C)C1=O)[C@H]2C(=O)/C=C/C=C/C` (some centres undefined): the IC50 in experiment [2] was 5.25 µM (active); in experiment [3], 5.92 µM (active); in [4] it was 122 µM (active).
With `Cc1cc(/C=C2/SC(=S)N(c3ccc([N+](=O)[O-])cc3)C2=O)c(C)n1-c1cccnc1`, the EC50 in [5] was > 60 µM (inconclusive); in experiment [6] it was 0.915 µM (active). Also, the IC50 on Protein Wnt-3a was 8.94 µM (active). For the same compound, the AC50 with INS1 is 0.862 µM (active).
In the case of `COc1ccccc1Oc1nnnn1-c1ccc(C(N)=O)cc1`, the IC50 in experiment [7] is 35.9 µM (inactive); on Steroidogenic factor 1, 7.85 µM (active); in experiment [8] it was 35.9 µM (inactive).
As for `Cc1c(OCC(=O)NC2CC(C)(C)NC(C)(C)C2)ccc2c1oc(=O)c1ccccc12`, the results for the AC50 in [9] and in experiment [10] were 22.4 µM (active) and 27.1 µM (active), respectively.
In the case of `CCOC(=O)C1(CC2CC2)CCN(Cc2cnc(N(C)C)s2)CC1`, the EC50 at Insulin-degrading enzyme [11] is > 54.7 µM (inactive); at Insulin-degrading enzyme [13], > 54.7 µM (inactive); in the experiment on HEK293 [14], > 56 µM (inactive). Moreover, the IC50 with HEK293 [12] was > 89.3 µM (inactive).
For `CCN(CC)CCCNc1nc2cc(OC)c(OC)cc2c2nc(-c3ccccc3)nn12`, in experiment [15], the CC50 is 19.9 µM (active). In addition, the EC50 is 12 µM (active) in experiment [5], 0.709 µM (active) in experiment [6], 4.58 µM (active) in [18] and 7.1 µM (active) in [20]. Also, the AC50 in experiment [9] is 2.03 µM (active). The IC50 in experiment [16] is 2.07 µM (active); in experiment [17], 1.11 µM (active); in [19], > 20 µM (inactive); in experiment [2] it was > 99 µM (inactive).
Turning to `CC(C)OCCCN=C(S)Nc1ccc(S(N)(=O)=O)cc1`, the IC50 is 0.771 µM (active) in experiment [21], 53 µM (inactive) in experiment [22] and 1.08 µM (active) in experiment [23].
For the compound `CC(C)CN(C(=O)COC(=O)c1ccc(Br)cc1)c1c(N)n(Cc2ccccc2)c(=O)[nH]c1=O`, the EC50 was > 54.7 µM (inactive) on Insulin-degrading enzyme [11], > 54.7 µM (inactive) at Insulin-degrading enzyme [13] and > 55.9 µM (inactive) in the experiment on HEK293 [14]. Besides, in the experiment with HEK293 [12], the IC50 is 13.4 µM (inactive).
In the case of `COCCCn1c(C)cc(C(=O)CN2c3cccc4cccc(c34)S2(=O)=O)c1C`, the IC50 in experiment [1] was 60.2 µM (inactive).
For the compound `Cc1cc(O)nc(SCC(=O)/C=C2\N(C)c3ccccc3C2(C)C)n1`, the IC50 at Protein Wnt-3a is 50 µM (inactive).
Take `O=C(COC(=O)c1ccc[n+]([O-])c1)Nc1ccc([N+](=O)[O-])cc1Cl`: the IC50 in experiment [7] was 3.98 µM (active); on Steroidogenic factor 1, 4.98 µM (active); in experiment [8], 35.9 µM (inactive).

For the origin of these results see ChEMBL document CHEMBL1201862, “PubChem BioAssay data set” (2004).
